The text below walks through data of US20220009920A1 (GB005, Inc., priority 2020, published 2022).

Molecules are shown by their SMILES.

Holding throughout (assay): Large panel kinase profiling
Type in all cases: biochemical
Conditions in all cases: 1 μM test article, 1 mM ATP

One assay addresses T1, GRK6 (Homo sapiens, UniProt P43250).
T1 construct: AssayQuant Technologies, Inc. (service provider)
Put shortly: (§1)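 Kinase activity was followed with the PhosphoSens CSox-Sensor platform, testing compound at 1 μM in the presence of 1 mM ATP. Reactions ran at 30° C. and fluorescence (Ex 360 nm/Em 485 nm) was read kinetically every 1 min.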

For a further assay, the target named is T2, MARK1 (Homo sapiens, UniProt Q9P0L2).
T2 construct: AssayQuant Technologies, Inc. (assay service)
T2 sequence (Q9P0L2 whole entry, species assumed): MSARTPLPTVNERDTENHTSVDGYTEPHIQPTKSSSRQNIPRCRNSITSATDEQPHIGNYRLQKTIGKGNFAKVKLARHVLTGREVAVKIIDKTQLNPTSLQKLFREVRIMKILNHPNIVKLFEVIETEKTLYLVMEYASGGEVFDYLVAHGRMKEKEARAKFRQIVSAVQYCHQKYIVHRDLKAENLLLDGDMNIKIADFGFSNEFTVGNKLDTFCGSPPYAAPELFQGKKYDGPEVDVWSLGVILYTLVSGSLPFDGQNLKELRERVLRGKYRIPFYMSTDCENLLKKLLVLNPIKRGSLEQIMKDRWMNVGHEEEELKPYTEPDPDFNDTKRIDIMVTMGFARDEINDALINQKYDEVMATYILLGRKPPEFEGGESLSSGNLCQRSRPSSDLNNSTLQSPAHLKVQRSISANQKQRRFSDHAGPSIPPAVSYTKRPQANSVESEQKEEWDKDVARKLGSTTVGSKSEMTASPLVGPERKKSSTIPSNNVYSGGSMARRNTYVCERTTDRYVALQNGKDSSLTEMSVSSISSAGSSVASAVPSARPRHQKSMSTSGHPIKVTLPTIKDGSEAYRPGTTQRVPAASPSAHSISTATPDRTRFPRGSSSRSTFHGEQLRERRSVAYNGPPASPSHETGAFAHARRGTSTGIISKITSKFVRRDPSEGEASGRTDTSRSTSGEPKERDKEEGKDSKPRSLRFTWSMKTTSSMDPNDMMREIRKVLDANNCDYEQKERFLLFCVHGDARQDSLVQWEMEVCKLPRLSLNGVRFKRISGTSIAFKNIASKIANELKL
Put shortly:
as §1

In another assay the target is T3, ULK1 (Homo sapiens, UniProt O75385).
T3 construct: AssayQuant Technologies, Inc. (contract laboratory that ran the panel)
T3 sequence (O75385 1-1050): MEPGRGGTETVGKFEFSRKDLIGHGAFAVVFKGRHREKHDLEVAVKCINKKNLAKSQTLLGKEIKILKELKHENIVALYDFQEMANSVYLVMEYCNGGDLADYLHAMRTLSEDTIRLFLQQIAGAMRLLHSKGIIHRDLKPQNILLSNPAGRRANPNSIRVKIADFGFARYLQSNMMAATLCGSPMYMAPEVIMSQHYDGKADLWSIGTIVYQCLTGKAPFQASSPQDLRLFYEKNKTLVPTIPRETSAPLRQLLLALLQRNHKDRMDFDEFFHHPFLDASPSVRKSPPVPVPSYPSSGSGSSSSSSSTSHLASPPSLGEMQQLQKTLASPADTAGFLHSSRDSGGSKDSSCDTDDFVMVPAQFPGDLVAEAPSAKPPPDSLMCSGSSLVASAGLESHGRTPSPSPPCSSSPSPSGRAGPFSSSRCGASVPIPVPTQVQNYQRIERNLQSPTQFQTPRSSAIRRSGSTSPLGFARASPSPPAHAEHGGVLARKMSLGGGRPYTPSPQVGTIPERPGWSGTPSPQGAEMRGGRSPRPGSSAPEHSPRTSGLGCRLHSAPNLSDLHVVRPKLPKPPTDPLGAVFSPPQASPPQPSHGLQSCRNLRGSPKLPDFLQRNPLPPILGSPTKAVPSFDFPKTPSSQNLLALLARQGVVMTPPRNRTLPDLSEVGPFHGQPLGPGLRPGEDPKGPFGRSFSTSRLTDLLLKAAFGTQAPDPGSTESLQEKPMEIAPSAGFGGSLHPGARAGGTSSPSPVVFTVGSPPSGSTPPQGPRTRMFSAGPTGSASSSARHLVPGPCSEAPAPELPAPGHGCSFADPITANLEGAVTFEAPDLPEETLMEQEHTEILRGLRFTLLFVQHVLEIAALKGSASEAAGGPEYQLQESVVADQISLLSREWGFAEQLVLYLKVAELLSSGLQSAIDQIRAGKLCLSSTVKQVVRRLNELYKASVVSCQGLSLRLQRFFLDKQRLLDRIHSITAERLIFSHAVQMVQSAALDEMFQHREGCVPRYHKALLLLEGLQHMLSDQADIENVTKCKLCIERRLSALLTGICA
Put shortly: as §1

For the next assay, the target named is T4, GSK3B (Homo sapiens, UniProt P49841).
T4 construct: AssayQuant Technologies, Inc. (service provider)
T4 sequence (P49841 whole entry, species assumed): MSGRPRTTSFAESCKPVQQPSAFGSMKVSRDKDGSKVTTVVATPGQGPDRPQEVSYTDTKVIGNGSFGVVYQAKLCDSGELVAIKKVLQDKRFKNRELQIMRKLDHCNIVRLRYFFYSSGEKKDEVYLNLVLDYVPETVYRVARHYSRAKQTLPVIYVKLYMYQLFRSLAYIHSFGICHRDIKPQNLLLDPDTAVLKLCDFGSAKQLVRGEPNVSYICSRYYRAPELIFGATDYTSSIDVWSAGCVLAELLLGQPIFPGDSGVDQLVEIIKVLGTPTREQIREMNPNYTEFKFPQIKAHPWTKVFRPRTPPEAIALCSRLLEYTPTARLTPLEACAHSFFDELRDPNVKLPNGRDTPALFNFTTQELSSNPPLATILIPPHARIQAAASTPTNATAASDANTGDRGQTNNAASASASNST
Put shortly: as §1

The next assay has as its target T5, TSSK2 (Homo sapiens, UniProt Q96PF2).
T5 construct: AssayQuant Technologies, Inc. (contract laboratory that ran the panel)
T5 sequence (Q96PF2 1-358): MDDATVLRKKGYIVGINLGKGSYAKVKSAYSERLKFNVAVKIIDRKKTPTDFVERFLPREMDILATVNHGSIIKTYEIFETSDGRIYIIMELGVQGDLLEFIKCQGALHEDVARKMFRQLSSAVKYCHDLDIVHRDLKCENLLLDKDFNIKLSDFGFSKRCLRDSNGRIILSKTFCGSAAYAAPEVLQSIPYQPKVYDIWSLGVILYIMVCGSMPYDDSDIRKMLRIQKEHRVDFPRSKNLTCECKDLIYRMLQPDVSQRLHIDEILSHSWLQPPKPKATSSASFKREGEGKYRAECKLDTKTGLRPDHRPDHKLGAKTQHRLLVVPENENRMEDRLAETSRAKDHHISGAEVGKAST
Put shortly: as §1

The target of another assay is T6, MINK1 (Homo sapiens, UniProt Q8N4C8).
T6 construct: AssayQuant Technologies, Inc. (assay service)
T6 sequence (Q8N4C8 whole entry, species assumed): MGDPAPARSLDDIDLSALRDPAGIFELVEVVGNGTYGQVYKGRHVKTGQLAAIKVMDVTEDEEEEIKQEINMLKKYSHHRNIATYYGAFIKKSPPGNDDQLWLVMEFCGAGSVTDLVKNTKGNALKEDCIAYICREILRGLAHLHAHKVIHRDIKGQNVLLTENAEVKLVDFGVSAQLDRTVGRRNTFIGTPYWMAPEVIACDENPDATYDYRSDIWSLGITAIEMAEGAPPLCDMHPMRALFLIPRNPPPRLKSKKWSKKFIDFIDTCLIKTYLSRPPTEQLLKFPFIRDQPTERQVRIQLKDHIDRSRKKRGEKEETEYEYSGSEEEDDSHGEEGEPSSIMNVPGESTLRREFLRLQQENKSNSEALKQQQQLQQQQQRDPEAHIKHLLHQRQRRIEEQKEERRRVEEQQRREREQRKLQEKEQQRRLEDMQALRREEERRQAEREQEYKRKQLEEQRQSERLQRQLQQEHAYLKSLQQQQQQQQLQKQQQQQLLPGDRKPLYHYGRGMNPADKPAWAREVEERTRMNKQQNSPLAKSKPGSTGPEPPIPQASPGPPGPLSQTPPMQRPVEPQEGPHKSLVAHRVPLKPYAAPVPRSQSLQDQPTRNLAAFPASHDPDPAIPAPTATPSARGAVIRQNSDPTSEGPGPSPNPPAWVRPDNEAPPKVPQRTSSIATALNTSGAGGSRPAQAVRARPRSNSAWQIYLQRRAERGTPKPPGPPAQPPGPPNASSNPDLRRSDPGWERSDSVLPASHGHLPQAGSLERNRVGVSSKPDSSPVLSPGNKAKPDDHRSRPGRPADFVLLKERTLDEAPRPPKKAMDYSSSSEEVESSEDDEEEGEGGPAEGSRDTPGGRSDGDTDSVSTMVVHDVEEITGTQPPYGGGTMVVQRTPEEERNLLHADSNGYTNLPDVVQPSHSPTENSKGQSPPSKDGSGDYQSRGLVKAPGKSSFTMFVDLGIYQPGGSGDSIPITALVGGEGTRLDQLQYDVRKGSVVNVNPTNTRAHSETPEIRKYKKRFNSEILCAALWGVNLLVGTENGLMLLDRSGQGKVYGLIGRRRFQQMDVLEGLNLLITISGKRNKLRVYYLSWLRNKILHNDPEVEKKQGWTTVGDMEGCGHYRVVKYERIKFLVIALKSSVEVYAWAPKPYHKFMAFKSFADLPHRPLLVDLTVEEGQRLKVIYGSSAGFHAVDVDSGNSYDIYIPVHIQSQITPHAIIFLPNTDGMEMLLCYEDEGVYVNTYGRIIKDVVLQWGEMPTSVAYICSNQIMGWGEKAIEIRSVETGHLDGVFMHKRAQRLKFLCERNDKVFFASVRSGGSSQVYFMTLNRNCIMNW
Put shortly:
as §1

T1 sequence (P43250 whole entry, species assumed): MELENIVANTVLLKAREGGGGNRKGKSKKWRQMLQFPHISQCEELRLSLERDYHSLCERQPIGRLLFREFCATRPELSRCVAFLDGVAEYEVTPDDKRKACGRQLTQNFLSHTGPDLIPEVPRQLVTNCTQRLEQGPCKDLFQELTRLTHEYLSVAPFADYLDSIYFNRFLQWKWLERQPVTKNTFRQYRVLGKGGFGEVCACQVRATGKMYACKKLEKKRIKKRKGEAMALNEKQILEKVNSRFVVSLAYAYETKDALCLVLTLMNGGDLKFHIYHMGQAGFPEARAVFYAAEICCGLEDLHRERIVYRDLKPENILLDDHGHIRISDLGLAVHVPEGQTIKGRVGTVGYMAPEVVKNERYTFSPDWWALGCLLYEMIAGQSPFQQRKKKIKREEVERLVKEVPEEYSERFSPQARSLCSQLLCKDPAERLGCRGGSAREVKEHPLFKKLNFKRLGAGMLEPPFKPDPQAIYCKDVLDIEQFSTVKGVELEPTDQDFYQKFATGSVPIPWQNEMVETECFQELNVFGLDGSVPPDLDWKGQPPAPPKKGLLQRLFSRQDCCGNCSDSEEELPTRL

Regarding `C=CC(=O)N1CCCC(c2c(F)cc(C(N)=O)c3[nH]c4c(c23)CCCCC4)C1` (single isomer, unassigned) [Compound 5-6], the inhibition at 1 µM on GRK6 is 8%; at MARK1 it was 15.4%; at ULK1 it was -3.1%; at GSK3B it was -6%; against TSSK2, 10.2%; against MINK1 it was -2.8%.
On to `C=CC(=O)N1CCC[C@@H](c2c(F)cc(C(N)=O)c3[nH]c4c(c23)CC2(CC4)CC2)C1` [Compound 6-2, (S)-5-(1-acryloylpiperidin-3-yl)-6-fluoro-1,2,4,9-tetrahydrospiro[carbazole-3,1′-cyclopropane]-8-carboxamide], for which the inhibition at 1 µM at GRK6 was -3.1%; on MARK1, -63.9%; against ULK1, -23.6%; against GSK3B it was 18.7%; against TSSK2 it was 22.9%; at MINK1, -22.7%.
Regarding `C=CC(=O)N1CCC[C@@H](c2c(F)cc(C(N)=O)c3[nH]c4c(c23)CCC4)C1` [Compound 10-2, (S)-8-(1-acryloylpiperidin-3-yl)-7-fluoro-1,2,3,4-tetrahydrocyclo-penta[b]indole-5-carboxamide], the inhibition at 1 µM at GRK6 is -1.9%; on MARK1, -12.9%; at ULK1, -6.1%; at GSK3B it was -12.5%; against TSSK2, 25.3%; against MINK1, -18.4%.

For orientation: inhibition means the relative decrease from the control value, in per cent.
